Structures can show the parent of a compound that is named as a salt.
Tested on: STAT6
Test: Inhibitory test on STAT6 activation: IL-4-induced alkali phosphatase STAT6 reporter in 293 cells stably expressing the STAT6 gene and STAT6 reporter gene
Format: cell-based
Settings: HEK293; Table 1; 1 ng/ml human recombinant IL-4, 16 hours, 293 cells with STAT6 reporter; read-out: Inhibitory activity IC50 (concentration at which the alkali phosphatase activity induced by IL-4 was inhibited by 50%)
In short: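 HEK293 clone stably carrying STAT6 and a STAT6-element-driven alkaline phosphatase reporter, 5000 cells/well. Compound (DMSO ≤0.1%) plus 1 ng/ml human IL-4 for 16 hours. Supernatant heat-treated 65° C. 10 minutes, then alkaline phosphatase measured fluorometrically in carbonate buffer.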

SMILES	IC50
FC(F)(F)c1cccc(N2CCN(c3ncnc4ccc(-c5cn[nH]c5)cc34)CC2)c1 [Example 265, 6-(1H-4-Pyrazolyl)-4-{4-[3-(trifluoromethyl)phenyl]-piperazin-1-yl}quinazoline trihydrochloride]	10 to 100 nM
COc1ccc(-c2n[nH]cc2-c2ccc3ncc(-c4noc(C5CC5)n4)n3c2)c(F)c1 [Example 580, 3-(5-Cyclopropyl-[1,2,4]oxadiazol-3-yl)-6-[3-(2-fluoro-4-methoxyphenyl)-1H-4-pyrazolyl]-imidazo[1,2-a]pyridine trihydrochloride]	< 10 nM
Fc1ccccc1-c1n[nH]cc1-c1ccc2ncc(-c3noc(C4CC4)n3)n2c1 [Example 583, 3-(5-Cyclopropyl-[1,2,4]oxadiazol-3-yl)-6-[3-(2-fluorophenyl)-1H-4-pyrazolyl]-imidazo[1,2-a]pyridine trihydrochloride]	< 10 nM
O=C1CCCN1Cc1nc(-c2cnc3ccc(-c4c[nH]nc4-c4ccccc4F)cn23)no1 [Example 596, 1-(3-{6-[3-(2-Fluorophenyl)-1H-4-pyrazolyl]-imidazo[1,2-a]-pyridin-3-yl}-[1,2,4]oxadiazol-5-ylmethyl)-pyrrolidin-2-one di-trifluoroacetate]	< 10 nM
O=C(Nc1ccc(F)cc1F)c1ccc(-c2cnc3ccc(-c4cn[nH]c4)cn23)cc1F [Example 678, N1-(2,4-Difluorophenyl)-2-fluoro-4-[6-(1H-4-pyrazolyl)-imidazo[1,2-a]pyridin-3-yl]benzamide hydrochloride]	< 10 nM
Clc1ccccc1N1CCN(c2ncnc3ccc(-c4cn[nH]c4)cc23)CC1 [Example 287, 4-[4-(2-Chlorophenyl)piperazin-1-yl]-6-(1H-4-pyrazolyl)-quinazoline]	10 to 100 nM
N#Cc1ccc(-c2n[nH]cc2-c2ccc3ncc(-c4ccc(CN5CCC[C@H]5C(N)=O)s4)n3c2)cc1 [Example 109, (2S)-1-{[(5-{6-[3-(4-Cyanophenyl)-1H-4-pyrazolyl]imidazo-[1,2-a]pyridin-3-yl}-2-thienyl)methyl]tetrahydro-1H-2-pyrrolecarboxyamidetrihydrochloride]	< 10 nM
CS(=O)(=O)c1ccc(-c2n[nH]cc2-c2ccc3ncc(-c4ccc(F)cc4)n3c2)cc1 [Example 101, 3-(4-Fluorophenyl)-6-{3-[4-(methylsulfonyl)phenyl]-1H-4-pyrazolyl}imidazo[1,2-a]pyridine dihydrochloride]	10 to 100 nM
CS(=O)(=O)c1cnc(-c2cnc3ccc(-c4c[nH]nc4-c4c(F)cccc4F)cn23)s1 [Example 549, 6-[3-(2,6-Difluorophenyl)-1H-pyrazol-4-yl]-3-(5-methylsulfonylthiazol-2-yl)imidazo[1,2-a]pyridine]	< 10 nM
COc1ccc(-c2cnc3ccc(-c4c[nH]nc4-c4ccc(F)cc4)cn23)cc1F [Example 622, 3-(3-Fluoro-4-methoxyphenyl)-6-[3-(4-fluorophenyl)-1H-4-pyrazolyl]imidazo[1,2-a]pyridine hydrochloride]	< 10 nM
Fc1ccc(-c2n[nH]cc2-c2ccc3ncc(-c4nnc(C5CC5)o4)n3c2)c(F)c1 [Example 557, 3-(5-Cyclopropyl[1,3,4]oxadiazol-2-yl)6-[3-(2,4-difluorophenyl)-1H-pyrazol-4-yl]imidazo[1,2-a]pyridine]	< 10 nM
Cc1n[nH]cc1-c1ccc2nccc(N3CCN(C(=O)Nc4ccccc4)CC3)c2c1 [Example 212, N-Phenyl-4-[6-(3-methyl-1H-4-pyrazolyl)-4-quinolyl]-1-piperazine carboxamide dihydrochloride]	< 10 nM
Fc1cc(OC2CCCC2)ccc1-c1n[nH]cc1-c1ccc2ncc(-c3noc(C4CC4)n3)n2c1 [Example 584, 6-[3-(4-Cyclopentyloxy-2-fluorophenyl)-1H-4-pyrazolyl]-3-(5-cyclopropyl-[1,2,4]oxadiazol-3-yl)-imidazo[1,2-a]-pyridine trihydrochloride]	< 10 nM
CCc1ccc(C(=O)C(C)(C)NC(=O)c2ccc(-c3cnc4ccc(-c5cn[nH]c5)cn34)cc2F)cc1 [Example 676, N1-[2-(4-Ethylphenyl)-1,1-dimethyl-2-oxyethyl]-2-fluoro-4-[6-(1H-4-pyrazolyl)imidazo[1,2-a]pyridin-3-yl]benzamide hydrochloride]	10 to 100 nM
Cc1cc(NC(=O)c2ccc(-c3cnc4ccc(-c5cn[nH]c5)cn34)cc2F)on1 [Example 688, N1-(3-Methylisoxazol-5-yl)-2-fluoro-4-[6-(1H-4-pyrazolyl)-imidazo[1,2-a]pyridin-3-yl]benzamide dihydrochloride]	< 10 nM
Cc1n[nH]cc1-c1ccc2ncc(-c3ccc(C(=O)NCCc4ccccn4)c(F)c3)n2c1 [Example 648, N1-[2-(2-Pyridyl)ethyl]-2-fluoro-4-[6-(3-methyl-1H-4-pyrazolyl)imidazo[1,2-a]pyridin-3-yl] benzamide]	10 to 100 nM

Same assay, conditions: HEK293; Table 2; 1 ng/ml human recombinant IL-4, 16 hours, 293 cells with STAT6 reporter; read-out: Inhibitory activity IC50 (concentration at which the alkali phosphatase activity induced by IL-4 was inhibited by 50%)

SMILES	IC50
COc1ccc(-c2n[nH]cc2-c2ccc3ncnc(N4CCN(c5cccc(S(C)(=O)=O)c5)CC4)c3c2)cc1OC [Example 963, 6-[3-(3,4-Dimethoxyphenyl)-1H-pyrazol-4-yl]-4-[4-(3-methylsulfonylphenyl)piperazin-1-yl]-quinazoline tri-trifluoroacetate]	< 10 nM
Cn1cnc(-c2ncnc3ccc(-c4c[nH]nc4-c4c(F)cccc4F)cc23)c1 [Example 911, 6-[3-(2,6-Difluorophenyl)-1H-pyrazol-4-yl]-4-(1-methyl-1H-imidazol-4-yl) quinazoline]	< 10 nM
O=C(Nc1cccc(N2CCN(c3ncnc4ccc(-c5cn[nH]c5)cc34)CC2)c1)C1(c2ccccc2)CC1 [Example 978, 1-Phenylcyclopropanecarboxylic acid (3-{4-[6-(1H-pyrazol-4-yl)quinazolin-4-yl]piperazin-1-yl}phenyl)amide tri-trifluoroacetate]	< 10 nM
Cc1cccc(N2CCN(c3ncnc4ccc(-c5cn[nH]c5)cc34)CC2)c1 [Example 934, 6-(1H-Pyrazol-4-yl)-4-(4-m-tolylpiperazin-1-yl)-quinazoline tri-trifluoroacetate]	< 10 nM
O=S(=O)(c1cccc(N2CCN(c3ncnc4ccc(-c5cn[nH]c5)cc34)CC2)c1)N1CCCCC1 [Example 955, 4-{4-[3-(Piperidine-1-sulfonyl)phenyl]piperazin-1-yl}-6-(1H-pyrazol-4-yl)quinazoline tri-trifluoroacetate]	< 10 nM
CS(=O)(=O)c1cccc(N2CCN(c3ncnc4ccc(-c5c[nH]nc5-c5ccc6c(c5)OCO6)cc34)CC2)c1 [Example 964, 6-(3-Benzo[1,3]dioxol-5-yl-1H-pyrazol-4-yl)-4-[4-(3-methylsulfonylphenyl)piperazin-1-yl]quinazoline tri-trifluoroacetate]	< 10 nM
O=S(=O)(Nc1cccc(N2CCN(c3ncnc4ccc(-c5cn[nH]c5)cc34)CC2)c1)c1cccs1 [Example 993, Thiophene-2-sulfonic acid (3-{4-[6-(1H-pyrazol-4-yl)quinazolin-4-yl]piperazin-1-yl)phenyl)amide tri-trifluoroacetate]	10 to 100 nM
CN(C)CCN(C)S(=O)(=O)c1ccc(-c2ncnc3ccc(-c4c[nH]nc4-c4ccc(F)cc4)cc23)s1 [Example 855, 5-{6-[3-(4-Fluorophenyl)-1H-pyrazol-4-yl]quinazolin-4-yl}-thiophen-2-sulfonic acid (2-dimethylaminoethyl)methylamide trihydrochloride]	< 10 nM
CS(=O)(=O)c1ccc(-c2ncnc3ccc(-c4c[nH]nc4-c4ccc(F)cc4)cc23)o1 [Example 900, 6-[3-(4-Fluorophenyl)-1H-pyrazol-4-yl]-4-(5-methylsulfonylfuran-2-yl) quinazoline]	10 to 100 nM
O=S1(=O)CCCN1c1cccc(N2CCN(c3ncnc4ccc(-c5cn[nH]c5)cc34)CC2)c1 [Example 1000, 4-{4-[3-(1,1-Dioxo-isothiazolidin-2-yl)phenyl]piperazin-1-yl}-6-(1H-pyrazol-4-yl)quinazoline tri-trifluoroacetate]	< 10 nM
CS(=O)(=O)c1cc(F)cc(N2CCN(c3ncnc4ccc(-c5cn[nH]c5)cc34)CC2)c1 [Example 845, 4-[4-(3-Fluoro-5-methylsulfonylphenyl)piperazin-1-yl]-6-(1H-4-pyrazolyl)quinazoline dihydrochloride]	< 10 nM
O=C(NC1CC1)c1ccc(-c2ncnc3ccc(-c4c[nH]nc4-c4ccc(F)cc4F)cc23)cc1F [Example 873, N-Cyclopropyl-4-{6-[3-(2,4-difluorophenyl)-1H-pyrazol-4-yl]quinazolin-4-yl}-2-fluorobenzamide dihydrochloride]	100 to 1000 nM
c1ccc(N2CCN(c3ncnc4ccc(-c5cn[nH]c5)cc34)CC2)nc1 [Example 936, 6-(1H-Pyrazol-4-yl)-4-(4-pyridin-2-yl-piperazin-1-yl)quinazoline tri-trifluoroacetate]	< 10 nM
Cc1ccnc(NC(=O)c2ccc(-n3cnc4ccc(-c5cn[nH]c5)cc43)cc2F)c1 [Example 728, N1-(4-Methyl-2-pyridyl)-2-fluoro-4-[6-(1H-4-pyrazolyl)-1H-benzo[d]imidazol-1-yl]benzamide trihydrochloride]	< 10 nM
CN(C)S(=O)(=O)c1ccc(N2CCN(c3ncnc4ccc(-c5cn[nH]c5)cc34)CC2)cc1 [Example 921, N,N-Dimethyl-4-{4-[6-(1H-pyrazol-4-yl)quinazolin-4-yl]piperazin-1-yl} benzene sulfonamide]	< 10 nM
CCS(=O)(=O)c1ccc(-c2ncnc3ccc(-c4c[nH]nc4-c4ccc(F)cc4)cc23)s1 [Example 896, 4-(5-Ethanesulfonylthiophen-2-yl)-6-[3-(4-fluorophenyl)-1H-pyrazol-4-yl] quinazoline]	< 10 nM
Fc1cccc(F)c1-c1n[nH]cc1-c1ccc2ncn(-c3ccc(Cl)cn3)c2c1 [Example 727, 1-(5-Chloropyridin-2-yl)-6-[3-(2,6-difluorophenyl)-1H-4-pyrazolyl]-1H-benzo[d]imidazole trihydrochloride]	< 10 nM
